In US11299473B2, “Benzimidazole and indole compounds and uses thereof” (Incyte Corporation, priority 2018, dated 2022):

Biological target: active HPK1 (SignalChem M23-11G) (Homo sapiens (Human), UniProt Q92918)
Assay: HPK1 Kinase Binding Assay
Conditions: LanthaScreen tracer 222 / Eu-Anti GST antibody, one hour incubation at 25° C.
Method: A stock solution of 1 mM test compound was prepared in DMSO. The compound plate was prepared by 3-fold and 11-point serial dilutions. 0.1 μL of the compound in DMSO was transferred from the compound plate to the white 384 well polystyrene plates. The assay buffer contained 50 mM HEPES, pH 7.5, 0.01% Tween-20, 5 mM MgCl2, 0.01% BSA, and 5 mM DTT. 5 μL of 4 nM active HPK1 (SignalChem M23-11G) prepared in the buffer was added to the plate. The enzyme concentration given was based on the given stock concentration reported by the vender. 5 μl of 18 nM tracer 222 (ThermoFisher PV6121) and 4 nM LanthaScreen Eu-Anti GST antibody (ThermoFisher PV5595) were added. After one hour incubation at 25° C., the plates were read on a PHERAstar FS plate reader (BMG Labtech). Ki values were determined.

active HPK1 (SignalChem M23-11G), sequence (Q92918 1-346 limits assumed): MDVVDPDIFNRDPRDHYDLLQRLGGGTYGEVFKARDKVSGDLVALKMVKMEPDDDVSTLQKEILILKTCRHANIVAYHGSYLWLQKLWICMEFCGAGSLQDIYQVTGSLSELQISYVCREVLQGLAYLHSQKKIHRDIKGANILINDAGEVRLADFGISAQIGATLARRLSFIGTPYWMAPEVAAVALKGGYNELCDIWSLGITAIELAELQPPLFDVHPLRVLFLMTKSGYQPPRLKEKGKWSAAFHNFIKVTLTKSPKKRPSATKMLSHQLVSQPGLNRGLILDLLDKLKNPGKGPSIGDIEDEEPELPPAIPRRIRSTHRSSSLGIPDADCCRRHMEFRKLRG

| SMILES | Ki [nM] |
| --- | --- |
| COc1cccc(F)c1-c1nccc(C(=O)Nc2ccc3c(nc(C)n3Cc3ccncc3)c2N2CC[C@H](N)C2)n1 [Example 29, (S)—N-(4-(3-Aminopyrrolidin-1-yl)-2-methyl-1-(pyridin-4-ylmethyl)-1H-benzo[d]imidazol-5-yl)-2-(2-fluoro-6-methoxyphenyl)pyrimidine-4-carboxamide] | ≤ 100 |
| COc1cccc(F)c1-c1nccc(C(=O)Nc2ccc3c(ccn3C)c2N2C[C@@H]3C[C@H]2CN3)n1 [Example 38, N-(4-((1S,4S)-2,5-Diazabicyclo[2.2.1]heptan-2-yl)-1-methyl-1H-indol-5-yl)-2-(2-fluoro-6-methoxyphenyl)pyrimidine-4-carboxamide] | ≤ 100 |
| COc1cccc(F)c1-c1nccc(C(=O)Nc2ccc3[nH]ccc3c2N2C[C@@H]3C[C@H]2CN3)n1 [Example 40, N-(4-((1S,4S)-2,5-Diazabicyclo[2.2.1]heptan-2-yl)-1H-indol-5-yl)-2-(2-fluoro-6-methoxyphenyl)pyrimidine-4-carboxamide] | ≤ 100 |
| N#Cc1ccccc1-c1nc2c(N3C[C@H](N)C[C@H]3CO)c(NC(=O)c3ccnc(-c4c(F)cccc4F)n3)ccc2n1C1CC1 [Example 5, N-(4-((2S,4R)-4-amino-2-(hydroxymethyl)pyrrolidin-1-yl)-2-(2-cyanophenyl)-1-cyclopropyl-1H-benzo[d]imidazol-5-yl)-2-(2,6-difluorophenyl)pyrimidine-4-carboxamide] | ≤ 100 |
| COc1cccc(F)c1-c1nccc(C(=O)Nc2ccc3c(ccn3C)c2N2C[C@@H](N)C[C@H]2CO)n1 [Example 36, N-(4-((2S,4S)-4-Amino-2-(hydroxymethyl)pyrrolidin-1-yl)-1-methyl-1H-indol-5-yl)-2-(2-fluoro-6-methoxyphenyl)pyrimidine-4-carboxamide] | ≤ 100 |

More lines, now with the values ahead:

| Ki [nM] | SMILES |
| --- | --- |
| ≤ 100 | COc1cccc(F)c1-c1nccc(C(=O)Nc2ccc3c(nc(C)n3[C@H]3CCOC3)c2N2CCC[C@H]2CN)n1 [Example 24, N-(4-((S)-2-(Aminomethyl)pyrrolidin-1-yl)-2-methyl-1-((S)-tetrahydrofuran-3-yl)-1H-benzo[d]imidazol-5-yl)-2-(2-fluoro-6-methoxyphenyl)pyrimidine-4-carboxamide] |
| ≤ 100 | COc1cccc(F)c1-c1nccc(C(=O)Nc2ccc3c(nc(C)n3Cc3cnn(C)c3)c2N2CC[C@H](N)C2)n1 [Example 30, (S)—N-(4-(3-Aminopyrrolidin-1-yl)-2-methyl-1-((1-methyl-1H-pyrazol-4-yl)methyl)-1H-benzo[d]imidazol-5-yl)-2-(2-fluoro-6-methoxyphenyl)pyrimidine-4-carboxamide] |
| ≤ 100 | COCCc1nc2c(N3CCC[C@H]3CN)c(NC(=O)c3ccnc(-c4c(F)cccc4OC)n3)ccc2n1C [Example 26, (S)—N-(4-(2-(Aminomethyl)pyrrolidin-1-yl)-2-(2-methoxyethyl)-1-methyl-1H-benzo[d]imidazol-5-yl)-2-(2-fluoro-6-methoxyphenyl)pyrimidine-4-carboxamide] |
| ≤ 100 | COc1cccc(F)c1-c1nccc(C(=O)Nc2ccc3c(nc(C)n3C)c2N2C[C@H]3C[C@@H]2CN3)n1 [Example 16, N-(4-((1R,4R)-2,5-Diazabicyclo[2.2.1]heptan-2-yl)-1,2-dimethyl-1H-benzo[d]imidazol-5-yl)-2-(2-fluoro-6-methoxyphenyl)pyrimidine-4-carboxamide] |
| ≤ 100 | COc1cccc(F)c1-c1nccc(C(=O)Nc2ccc3c(nc(C)n3CC(C)(C)OC)c2N2CCC[C@H]2CN)n1 [Example 23, (S)—N-(4-(2-(Aminomethyl)pyrrolidin-1-yl)-1-(2-methoxy-2-methylpropyl)-2-methyl-1H-benzo[d]imidazol-5-yl)-2-(2-fluoro-6-methoxyphenyl)pyrimidine-4-carboxamide] |
| ≤ 100 | COc1cccc(F)c1-c1nccc(C(=O)Nc2ccc3c(nc(C4CCOCC4)n3C)c2N2CCC[C@H]2CN)n1 [Example 20, (S)—N-(4-(2-(Aminomethyl)pyrrolidin-1-yl)-1-methyl-2-(tetrahydro-2H-pyran-4-yl)-1H-benzo[d]imidazol-5-yl)-2-(2-fluoro-6-methoxyphenyl)pyrimidine-4-carboxamide] |
